From US20240376427A1, “COMPOSITIONS AND SYSTEMS COMPRISING THREE-DIMENSIONAL NERVE CELL CULTURES AND METHODS OF USING THE SAME” (THE ADMINISTRATORS OF THE TULANE EDUCATIONAL FUND, priority 2021, published 2024)

Tests used:
[1] = system: DRG(CHR2-GFP)-SCDH(CaMPARI-2) cocultures; experiment: Optogenetic DRG photostimulation-induced calcium influx in SCDH recorded by CaMPARI-2; format: cell-based, rat
Protocol: (§1) AAV1-hSyn-NES-his-CaMPARI2-WPRE-SV40 was a gift from Eric Schreiter (Addgene viral prep #101060-AAV1; http://n2t.net/addgene:101060; […]; http://n2t.net/addgene:58880; RRID:Addgene_5880). Viral particles of both types were added during spheroid formation with a MOI of 200,000. Cultures were seeded and matured for three weeks. Baseline red fluorescence was imaged with both three and ten second exposures prior to photostimulation using a Nikon AZ100 fluorescent microscope (2× magnification plus 5× or 8× digital zoom). […] Post-photostimulation red fluorescence was again imaged with methods identical to baseline imaging. The integrated pixel intensity for a region of interest encompassing each spheroid of interest was quantified in Fiji (ImageJ) and post-photostimulation intensity was normalized to pre stimulation intensity to obtain a final value for fold change in integrated pixel intensity.
(§2) The optogenetic experiments were conducted with between-samples designs. The fold change in red fluorescence before and after photostimulation was compared between control cultures and groups of cultures that received different independent treatments. […]

[2] = system: DRG spheroid monocultures; format: cell-based, rat
[3] = system: hPSC-derived nociceptor-dorsal spinal cord cocultures; experiment: Evoked response field potential recording in hPSC-derived nociceptor-dorsal spinal cord cocultures; format: cell-based, human
Protocol: Generation o±3D Spheroid Cultures. Cryogenically preserved human stem-cell derived spinal cord dorsal horn (SCDH) precursor cells were a kind gift from the Randolph Ashton. Cells were rapidly thawed and diluted 1:4 in Neurobasal Medium (Thermo-Fisher Scientific, Waltham, MA). Cells were centrifuged at 300 g for 4 minutes and the supernatant was removed. Cells were then resuspended in neuronal differentiation media comprised of Neurobasal Medium supplemented with 2% v/v B27 supplement (Thermo-Fisher), 1% v/v N2 supplement (Thermo-Fisher), 1% v/v GlutaMAX (Thermo-Fisher), 20 ng/mL human nerve growth factor, 10 ng/mL recombinant human/murine/rat brain derived neurotrophic factor, 10 ng/mL recombinant human glial cell derived neurotrophic factor, 10 ng/mL recombinant human NT-3 (all growth factors from PeproTech, Cranbury, NJ, USA), 1 uM dibutyrl-cAMP (Millipore-Sigma, St. Louis, MO, USA), 10 uM Y-27632 (Abcam, Waltham, MA, USA), 10 uM DAPT (Tocris, Minneapolis, MN, USA), and 1% v/v antibiotic/antimycotic solution (Thermo-Fisher). Cells were plated at 500,000 cells/cm^2 on culture well plates coated with Matrigel (Corning) diluted at 1:100 for six days in neuronal differentiation media changed every-other-day to force terminal neuron differentiation. Cryogenically preserved human stem cell-derived nociceptors were purchased from Anatomic, Inc (Minneapolis, MN, USA). Cells were rapidly thawed, diluted 1:4 in Neurobasal Medium, centrifuged at 300 g for 4 minutes, and the supernatant was removed. Nociceptors were then resuspended in human culture growth media (identical to neuronal differentiation media but lacking DAPT and Y-27632) plated at 80,000 cells/cm^2 in well plates coated with Matrigel diluted at 1:100, allowed to adhere overnight, and washed to remove any dead cell debris. Nociceptor and terminally differentiated SCDH cell cultures were lifted by incubation in Accutase at 37° C. for 15 minutes. The cell suspensions were collected, centrifuged at 300 g for 4 minutes, the supernatant was removed, and both cell types were resuspended in culture growth media. […]

[4] = system: DRG monocultures; experiment: CaMPARI-2 recorded calcium influx in DRG monocultures (capsaicin); format: cell-based, rat; settings: 10 μM capsaicin for five minutes prior to photostimulation, vs vehicle (0.1% DMSO)
Protocol: as §1, §2

[5] = system: hPSC-derived nociceptor-SCDH cocultures; format: cell-based, human

In the case of `N#Cc1cc2c(cc1[N+](=O)[O-])=NC(=O)C(=O)N=2.O.[Na].[Na]` [CNQX, 6-Cyano-7-nitroquinoxaline-2,3-dione disodium salt hydrate], the “calcium influx in SCDH following optical excitation of DRG tissue” value [1] is reported as “significantly reduced calcium influx”, the “electrically-evoked compound action potentials (CAPs)” value [2] is reported as “insensitive” and the “amplitude of the later negative and positive-going portions of the synaptic waveform” value [3] is reported as “reduced”. The “synaptically evoked activity in dorsal spinal cord tissue following stimulation of afferent nociceptor spheroid” value [3] was “blocks a large portion”.

For `O=C(O)CN(CCN(CC(=O)O)CC(=O)O)CC(=O)O` [EDTA, ethylenediaminetetraacetic acid], the “electrically-evoked compound action potentials (CAPs)” value [2] was “insensitive”.

With `COc1cc(CNC(=O)CCCC/C=C/C(C)C)ccc1O` [capsaicin] the “calcium influx recorded by CaMPARI-2 (fold change in red fluorescence)” value [4] was “induced significant calcium influx”.

For `CN1CC[C@]23c4c5ccc(O)c4O[C@H]2[C@@H](O)C=C[C@H]3[C@H]1C5.O=S(=O)(O)O` [morphine, Morphine sulfate], the “late, positive-going portion of the synaptically evoked waveform” value [3] was “prolongs”, the “fully spontaneous burst firing in SCDH spheroid” value [5] was “increases in frequency and amplitude” and the “semi-spontaneous burst firing in SCDH spheroid” value [5] was “increased in frequency”.

`NC1=N[C@H](O)[C@H]2[C@H]3O[C@]4(O)O[C@@H]([C@@H](O)[C@@]2(N1)[C@@H]4O)[C@]3(O)CO` [tetrodotoxin] was tested, and the “electrically-evoked compound action potentials (CAPs)” value [2] was “completely blocked”.
